In patent US20220162610A1, “NOVEL RNA TRANSCRIPT” (PTC Therapeutics, Inc., priority 2020, published 2022):

Assays:
HTT protein = HTT protein electrochemiluminescence (ECL) assay in HD patient fibroblasts, 96 h; assay type: cell-based, human; conditions: for HTT protein level: fibroblasts derived from HD patients, 96 h
Protocol: Human fibroblasts derived from a homozygous patient with HD (GM4857) were cultured for 96 hours in the presence of test compounds (in 0.5% DMSO) or controls at 37° C. in a humidified 5% CO2 atmosphere. After 96 hours, cells were lysed and frozen. HTT protein levels were measured in lysates as described below. Compounds that decreased HTT protein levels relative to DMSO control were further tested in a dose response assay.
For analysis in the electrochemiluminescence (ECL) assays, test compounds were serially diluted 3-fold in 100% DMSO (Sigma) to generate a 7-point concentration curve. A solution of test compound (500 nL, 200× in DMSO) was added to each test well with Acoustic Transfer System (EDC Biosystems); final concentration of DMSO was 0.5%. Fibroblasts were seeded in 96-well flat-bottomed plates (Thermo Fisher) at 4×10^3 cells/well in 100 μl of culture medium containing the test compound or DMSO vehicle control and incubated for 96 hours (37° C., 5% CO2, 100% relative humidity). After removal of the supernatant, cells were lysed in 50 μL of 1×LB11 extraction buffer (50 mM Tris (pH 7.4), 300 mM NaCl, 10% [w/v] glycerol, 3 mM EDTA, 1 mM MgCl2, 20 mM glycerophosphate, 25 mM NaF, 1% Triton X-100), containing a Complete™ protease inhibitor cocktail (Roche Diagnostics) with shaking at 4° C. for 30 minutes; the plates were then stored at −20° C.
Meso Scale Discovery® 96-well plates (MSD®) were coated overnight at 4° C. with primary antibodies in phosphate-buffered saline (PBS; 30 μl/well). The plates were washed three times with 0.05% Tween-20 in 1×PBS (PBS-T; 200 μl/well) then blocked (100 μl/well; 5% bovine serum albumin [BSA] in PBS-T) for 5-6 hours at room temperature (RT) with shaking. Plates were then washed three times with PBS-T. Cell lysates were transferred to the antibody coated plates (25 μl/well) and incubated with shaking overnight at 4° C. After removal of the lysates, the plates were washed three times with PBS-T, and 25 μl of detection antibody in 1% BSA, PBS-T was added to each well and incubated with shaking for 1 hour at room temperature. After three washes with PBS-T, 25 μl of Sulfo-Tag secondary antibody (MSD®; 0.25 μg/ml in 1% BSA, PBS-T) was added to each well and incubated with shaking for 1 hour at RT. After washing three times with PBS-T, 150 μl of read buffer T with surfactant (MSD®) was added to each empty well and the plate was imaged on the SI 6000 imager (MSD®) according to manufacturers' instructions for 96-well plates. Primary capture antibodies included: anti-polyglutamine-expanded HTT mouse monoclonal antibody (mAb) clone MW1 (1 μg/mL; Developmental Studies Hybridoma Bank); anti-HTT MAB2166 mAb (1 μg/mL; Millipore); anti-human KRAS rabbit polyclonal antibody (1 μg/mL; Thermo Fisher Scientific). Detection antibodies included: Huntingtin (D7F7) XP® Rabbit mAb (0.25 μg/ml; Cell Signalling Technology®); anti-hKRAS mouse mAb (0.25 μg/ml; LSBIO).

[1] = test system: human HTT intron 49 minigene; assay: Human HTT intron 49 minigene splicing in transfected HEK293 cells (endpoint PCR); assay type: cell-based; conditions: 10 nM, 100 nM, 1 μM, 24 h
Protocol: To identify potential sequence elements, human, mouse, and hybrid mouse/human HTT intron 49 minigene constructs were generated (FIG. 7A,7Bi-xii, 7Di-viii and 7Ei-vi). HEK293 cells transfected with the minigene constructs were treated with varying concentrations of test compounds in a final concentration 0.05% DMSO and incubated for 24 hours. Total RNA was isolated from the cells using the RNeasy plus mini kit (Qiagen) and RNA concentration and quality were assessed using a NanoDrop spectrophotometer (Thermo Fisher Scientific). cDNA was synthesized using an iScript™ cDNA synthesis kit (Bio-rad Laboratories) according to the manufacturer's instructions. Endpoint PCRs were set up using Platinum™ PCR SuperMix High Fidelity (Invitrogen) and the resulting PCR products separated on 2% eGels (Invitrogen). Primers were directed against common sequences in the minigene constructs: […]

human HTT protein = assay: Pharmacodynamic study in BACHD mice, HTT protein in tissues; assay type: in vivo
Protocol: Test mice were euthanised and brain, muscle (quadriceps), and blood samples were harvested 2 hours after the last dose on Day 20. Prior to analysis, crude total protein from brain and muscle tissue samples was prepared by sample lysis in MSD® assay buffer 1 (MSD®) with Complete™ Protease Inhibitor Cocktail added (Roche Diagnostics). Tissues were then homogenised using TissueLyser II (Qiagen) plus a 5 mm stainless steel bead. The lysate was clarified by centrifugation at 16,000×g for 20 minutes at 4° C. and the total protein concentration quantified with the Pierce™ BCA Protein Assay Kit (Thermo Scientific) according to the manufacturer's instructions. Whole blood was collected by cardiac puncture into EDTA collection tubes. An aliquot (100-200 μL) was added to 1.5 mL of eBioscience™ 1× Red Blood Cell Lysis Buffer (Thermo Fisher) and mixed well for 5 minutes before collecting the white blood cells (WBC) by centrifugation at 400×g. The supernatant was discarded, and the pellet of WBCs was frozen in liquid nitrogen and stored at −70° C. Brain and muscle sample lysates were analysed for hHTT and KRAS protein expression using the ECL protein assay (described previously); using the same method WBC samples were also analysed for hHTT expression but not KRAS.
Each tissue sample was tested in duplicate using the ECL protein assay and the average hHTT and KRAS readouts were calculated. The ratio of the mean hHTT signal to the mean KRAS signal (×1000) was determined for each test animal. The hHTT/KRAS ratio grand mean for the vehicle group of five test animals was calculated and the fold change relative to the vehicle grand mean was determined for each test animal in each group. Percent hHTT (% hHTT) lowering normalised to KRAS was determined for each test animal by subtracting the fold change from one and multiplying the difference by 100. Each experiment was performed twice yielding ten % hHTT lowering values for each treatment group. For each treatment group, the mean % hHTT lowering plus the standard error of the mean (SEM) was plotted as a bar graph. The % hHTT lowering in white blood cell samples was determined without KRAS using the grand hHTT vehicle mean instead of the grand hHTT/KRAS ratio vehicle mean.
BACHD: Pharmacodynamic (PD) evaluations were performed in BACHD mice aged 6-10 weeks. Compound or vehicle (HPMC/0.1% Tween 80) was administered to BACHD mice (5 female mice per group) once daily for 21 doses (QD×21) by oral gavage; dosing volumes were 10 mL/kg. Each animal was regularly observed for mortality or signs of pain, distress, or overt toxicity and findings were recorded. Body weights were recorded at the start and at least once a week during the course of the study. As described previously, tissue samples were obtained and prepared for ECL protein assay analysis from each animal as described previously.

Q: How did the HTT protein level (HTT protein) turn out when `CC1(C)CC(Oc2ccc(-c3ccc(-c4ccnc(O)c4)cc3O)nn2)CC(C)(C)N1` [HTT-C1] was run?
A: Its HTT protein level is “dose-dependent decrease”.

Q: And the “wild type and mutant HTT protein expression” value (HTT protein; fibroblasts, 96-hour treatment)?
A: Its value is “lowered HTT protein expression from both alleles”.

Q: What does the source list for `CC1(C)CC(Oc2ccc(-c3ccc(-c4cn[nH]c4)cc3O)nn2)CC(C)(C)N1` [HTT-C2]?
A: compound-induced splicing of minigene [1]: responded in a dose dependent manner; time for protein expression to return to control levels after treatment cessation (human HTT protein; 10 mg/kg, brain): ≤ 10 days; time at which maximal reductions in HTT levels were achieved (human HTT protein; 10 mg/kg, brain, time course 4-63 days): ≤ 21 days; lowering of HTT protein throughout the whole brain (human HTT protein; 10 mg/kg, incl. striatum and cortex): > 50%; HTT reduction in blood cells, muscle, heart, liver and kidney (human HTT protein; at doses required to achieve 50% HTT lowering in the brain): > 90%; HTT levels within brain tissue (human HTT protein; daily oral administration, 3 or 10 mg/kg): dose-dependent reduction of HTT levels within brain tissue; HTT protein within peripheral tissues (human HTT protein; oral administration): dose dependently lowered HTT protein within peripheral tissues

Q: For `CCN1CCC(c2cc(C)c3nc(-c4ccc5nn(C)cc5c4)cc(=O)n3c2)CC1` [HTT-D1], which HTT protein level (HTT protein) is on record?
A: The HTT protein level was “dose-dependent decrease”.

Q: With `CCN1CCC(c2cc3c(F)cc(-c4cc(C)c5nc(C)cn5n4)cc3nn2)CC1` [HTT-D3] as the molecule, how does the “HTT protein within the brain and peripheral tissues” value (human HTT protein; BACHD mice) read?
A: The value was “dose dependent and more equitable lowering of HTT protein”.
